Here are results for 28 compounds from US9212182B2, “Bicyclic sulfonamide compounds as sodium channel inhibitors” (AMGEN INC., priority 2013, dated 2015).

In this assay the target is Nav 1.7 (Homo sapiens (Human), UniProt Q15858). The experiment in a line: in-vitro Nav 1.7 PX (IC50). It counts as cell-based.

Like-named read-outs stand apart in the source and are kept apart here.

Sequence of Nav 1.7 (Q15858 whole entry): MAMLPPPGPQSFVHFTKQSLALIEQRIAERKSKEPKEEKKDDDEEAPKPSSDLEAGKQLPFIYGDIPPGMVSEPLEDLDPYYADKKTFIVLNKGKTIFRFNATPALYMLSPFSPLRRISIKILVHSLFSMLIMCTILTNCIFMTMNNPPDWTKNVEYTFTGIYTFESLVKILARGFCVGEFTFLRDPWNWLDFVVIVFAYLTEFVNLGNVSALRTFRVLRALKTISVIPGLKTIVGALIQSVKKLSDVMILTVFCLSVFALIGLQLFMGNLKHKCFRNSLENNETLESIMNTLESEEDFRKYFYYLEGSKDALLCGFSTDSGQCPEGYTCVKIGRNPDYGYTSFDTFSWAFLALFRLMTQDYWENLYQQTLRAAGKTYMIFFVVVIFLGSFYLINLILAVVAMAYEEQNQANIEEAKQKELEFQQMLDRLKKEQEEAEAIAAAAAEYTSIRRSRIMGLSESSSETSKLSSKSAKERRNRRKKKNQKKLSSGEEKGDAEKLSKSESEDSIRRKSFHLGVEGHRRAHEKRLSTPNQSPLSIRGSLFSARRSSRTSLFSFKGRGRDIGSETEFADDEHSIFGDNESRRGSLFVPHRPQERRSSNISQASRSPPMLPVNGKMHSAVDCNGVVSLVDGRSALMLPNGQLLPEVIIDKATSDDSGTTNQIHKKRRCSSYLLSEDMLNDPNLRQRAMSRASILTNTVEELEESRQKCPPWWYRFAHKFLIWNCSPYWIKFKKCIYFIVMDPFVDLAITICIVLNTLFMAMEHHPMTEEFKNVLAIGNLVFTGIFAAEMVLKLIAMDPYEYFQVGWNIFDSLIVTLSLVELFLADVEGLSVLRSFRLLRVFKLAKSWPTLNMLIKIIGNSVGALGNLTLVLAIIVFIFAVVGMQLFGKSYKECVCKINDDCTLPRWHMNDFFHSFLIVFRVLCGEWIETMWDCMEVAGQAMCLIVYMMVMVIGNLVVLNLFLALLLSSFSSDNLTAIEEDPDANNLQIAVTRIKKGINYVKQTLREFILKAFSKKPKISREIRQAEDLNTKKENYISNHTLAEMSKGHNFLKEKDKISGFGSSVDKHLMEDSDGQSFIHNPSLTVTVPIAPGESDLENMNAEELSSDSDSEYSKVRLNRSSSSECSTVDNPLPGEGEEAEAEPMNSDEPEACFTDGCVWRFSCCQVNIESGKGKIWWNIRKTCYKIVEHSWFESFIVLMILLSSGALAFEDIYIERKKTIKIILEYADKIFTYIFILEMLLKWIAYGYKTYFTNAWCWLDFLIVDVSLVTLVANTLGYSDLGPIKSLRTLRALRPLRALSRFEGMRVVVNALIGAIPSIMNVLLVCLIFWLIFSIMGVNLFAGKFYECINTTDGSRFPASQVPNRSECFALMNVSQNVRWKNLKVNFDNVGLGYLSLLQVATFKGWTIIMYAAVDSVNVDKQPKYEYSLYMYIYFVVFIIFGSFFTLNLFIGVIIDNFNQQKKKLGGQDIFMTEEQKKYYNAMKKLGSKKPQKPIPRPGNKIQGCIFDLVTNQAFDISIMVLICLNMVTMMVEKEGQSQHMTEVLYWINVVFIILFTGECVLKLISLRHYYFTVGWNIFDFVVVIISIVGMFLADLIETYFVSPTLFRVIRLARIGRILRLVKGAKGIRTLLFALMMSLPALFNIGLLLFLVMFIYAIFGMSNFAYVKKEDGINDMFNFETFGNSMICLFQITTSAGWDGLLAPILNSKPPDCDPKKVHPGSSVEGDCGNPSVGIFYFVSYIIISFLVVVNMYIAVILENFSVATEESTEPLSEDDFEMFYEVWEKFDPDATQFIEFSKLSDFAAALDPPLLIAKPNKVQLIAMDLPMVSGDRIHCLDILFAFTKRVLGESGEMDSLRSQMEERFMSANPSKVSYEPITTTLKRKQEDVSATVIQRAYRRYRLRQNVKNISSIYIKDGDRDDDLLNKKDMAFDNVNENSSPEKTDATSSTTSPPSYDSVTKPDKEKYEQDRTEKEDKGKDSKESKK

Broadly, the IC50 is the concentration that gives 50% inhibition. Regarding `COc1cc(-c2cc(F)cc(Cl)c2)c(F)cc1-n1c(=O)ccc2cc(S(=O)(=O)Nc3ncc(F)cn3)ccc21` (atropisomer, axis not shown; (P)) [Example 544, (P)-1-(3′-chloro-2,5′-difluoro-5-methoxy-4-biphenylyl)-N-(5-fluoro-2-pyrimidinyl)-2-oxo-1,2-dihydro-6-quinolinesulfonamide], half-maximal inhibition (IC50) required 14 nM.

Take `COc1nc(Oc2ccc(F)c(F)c2)c(Cl)cc1-n1c(=O)ccc2cc(S(=O)(=O)Nc3ccon3)ccc21` [Example 1222, 1-(5-chloro-6-(3,4-difluorophenoxy)-2-methoxy-3-pyridinyl)-N-3-isoxazolyl-2-oxo-1,2-dihydro-6-quinolinesulfonamide]: half-maximal inhibition (IC50) was put at 903 nM.

As for `COc1cc(-c2cncc(Cl)c2)c(F)cc1-n1c(=O)ccc2cc(S(=O)(=O)Nc3ccon3)ccc21` (atropisomer, axis not shown; (M)) [Example 409, (M)-1-(4-(5-chloro-3-pyridinyl)-5-fluoro-2-methoxyphenyl)-N-3-isoxazolyl-2-oxo-1,2-dihydro-6-quinolinesulfonamide], the midpoint of inhibition (in-vitro PatchXpress (PX)), the IC50, lay at 60 nM.

In turn, `COc1ccc(-c2cc(F)cc(Cl)c2)cc1-n1c(=O)ccc2cc(S(=O)(=O)Nc3ccncn3)ccc21` (atropisomer, axis not shown; (M)) [Example 612, (M)-1-(3′-chloro-5′-fluoro-4-methoxy-3-biphenylyl)-2-oxo-N-4-pyrimidinyl-1,2-dihydro-6-quinolinesulfonamide] yielded an IC50 (in-vitro Nav 1.7 PX data) of 355 nM.

On to `COc1cc(-c2cc(Cl)ccc2C)c(F)cc1-n1c(=O)ccc2cc(S(=O)(=O)Nc3ccon3)ccc21` [Example 743, 1-(5′-chloro-2-fluoro-5-methoxy-2′-methyl-4-biphenylyl)-N-3-isoxazolyl-2-oxo-1,2-dihydro-6-quinolinesulfonamide], for which the IC50 (in-vitro Nav 1.7 PX data) is 5 nM. Against the preceding compound, the IC50 is about 71-fold lower.

As to `COc1cnc(-c2cc(F)cc(Cl)c2)cc1-n1c(=O)ccc2cc(S(=O)(=O)Nc3ccon3)ccc21` [Example 618, 1-(2-(3-chloro-5-fluorophenyl)-5-methoxy-4-pyridinyl)-N-3-isoxazolyl-2-oxo-1,2-dihydro-6-quinolinesulfonamide], the IC50 (in-vitro Nav 1.7 PX data) worked out at 605 nM. This IC50 is about 120-fold higher than that of the compound before.

With `COc1nc(C2CC2)c(Cl)cc1-n1c(=O)ccc2cc(S(=O)(=O)Nc3ccon3)ccc21` [640/830, 1-(5-chloro-6-cyclopropyl-2-methoxy-3-pyridinyl)-N-3-isoxazolyl-2-oxo-1,2-dihydro-6-quinolinesulfonamide], 38 nM corresponded to half-maximal inhibition (in-vitro Nav 1.7 PX data) (IC50).

Under “in-vitro Nav 1.7 PX data”, `COc1nc(-c2cc(F)cc(F)c2)c(Cl)cc1-n1c(=O)ccc2cc(S(=O)(=O)Nc3ncccn3)ccc21` [Example 1081, 1-(5-chloro-6-(3,5-difluorophenyl)-2-methoxy-3-pyridinyl)-2-oxo-N-2-pyrimidinyl-1,2-dihydro-6-quinolinesulfonamide] yielded an IC50 of 4150 nM. Compared with the last compound, the IC50 is about 110-fold higher.

Regarding `O=c1ccc2cc(S(=O)(=O)Nc3nncs3)ccc2n1-c1ccc(-c2cc(F)cc(F)c2)cc1C1CC1` [Example 1047, 1-(3-cyclopropyl-3′,5′-difluoro-4-biphenylyl)-2-oxo-N-1,3,4-thiadiazol-2-yl-1,2-dihydro-6-quinolinesulfonamide], the midpoint of inhibition (in-vitro Nav 1.7 PX data (PatchXpress)), the IC50, lay at 6500 nM.

Consider `COc1cc(-c2cc(Cl)ccc2C)ccc1-n1c(=O)ccc2cc(S(=O)(=O)Nc3ccon3)ccc21` [Example 1029, 1-(5′-chloro-3-methoxy-2′-methyl-4-biphenylyl)-N-3-isoxazolyl-2-oxo-1,2-dihydro-6-quinolinesulfonamide], for which half-maximal inhibition (in-vitro Nav 1.7 PX data) (IC50) was put at 3 nM. This lies in the single-digit nanomolar range.

As to `COc1cc(Cl)c(-c2cc(F)cc(Cl)c2)cc1-n1c(=O)ccc2cc(S(=O)(=O)Nc3ccon3)ccc21` (atropisomer, axis not shown; (M)) [Example 615, (M)-1-(3′,6-dichloro-5′-fluoro-4-methoxy-3-biphenylyl)-N-3-isoxazolyl-2-oxo-1,2-dihydro-6-quinolinesulfonamide], the IC50 (in-vitro Nav 1.7 PX data) stood at 10800 nM.

`COc1cc(-c2ccc(C#N)c(Cl)c2)c(F)cc1-n1c(=O)ccc2cc(S(=O)(=O)Nc3ccon3)ccc21` (atropisomer, axis not shown; (M)) [Example 521, (M)-1-(3′-chloro-4′-cyano-2-fluoro-5-methoxy-4-biphenylyl)-N-3-isoxazolyl-2-oxo-1,2-dihydro-6-quinolinesulfonamide] registered an IC50 (in-vitro PatchXpress (PX)) greater than 10000 nM.

In turn, `COc1cc(-c2cc(Cl)cc(C#N)c2)c(F)cc1-n1c(=O)ccc2cc(S(=O)(=O)Nc3ccon3)ccc21` (atropisomer, axis not shown; (M)) [Example 519, (M)-1-(3′-chloro-5′-cyano-2-fluoro-5-methoxy-4-biphenylyl)-N-3-isoxazolyl-2-oxo-1,2-dihydro-6-quinolinesulfonamide] returned an IC50 (in-vitro PatchXpress (PX)) of 16 nM.

`O=c1ccc2cc(S(=O)(=O)Nc3ccon3)ccc2n1-c1ccc(-c2cccc(F)c2)cc1CC(O)CO` (racemic) [Example 327, 1-(3-((2R)-2,3-dihydroxypropyl)-3′-fluoro-4-biphenylyl)-N-3-isoxazolyl-2-oxo-1,2-dihydro-6-quinolinesulfonamide, 1-(3-((2S)-2,3-dihydroxypropyl)-3′-fluoro-4-biphenylyl)-N-3-isoxazolyl-2-oxo-1,2-dihydro-6-quinolinesulfonamide]: 5570 nM corresponded to half-maximal inhibition (IC50).

On to `COc1cc(-c2cc(F)cc(Cl)c2)ccc1-n1c(=O)ccc2cc(S(=O)(=O)Nc3ccon3)ccc21` (atropisomer, axis not shown; (P)) [Example 430, (P)-1-(3′-chloro-5′-fluoro-3-methoxy-4-biphenylyl)-N-3-isoxazolyl-2-oxo-1,2-dihydro-6-quinolinesulfonamide], for which half-maximal inhibition (IC50) was put at 12 nM. This IC50 lies about 460-fold lower than the previous one.

As to `COc1ccc(-c2ccccc2Cl)cc1-n1c(=O)ccc2cc(S(=O)(=O)Nc3ccon3)ccc21` [Example 842, 1-(2′-chloro-4-methoxy-3-biphenylyl)-N-3-isoxazolyl-2-oxo-1,2-dihydro-6-quinolinesulfonamide], 72 nM corresponded to half-maximal inhibition (in-vitro Nav 1.7 PX data) (IC50). This counts as double-digit nanomolar.

In the case of `COc1cc(C[C@@H]2CCOC2)c(F)cc1-n1c(=O)ccc2cc(S(=O)(=O)Nc3ccon3)ccc21` [Example 1123, 1-(5-fluoro-2-methoxy-4-((3R)-tetrahydro-3-furanylmethyl)phenyl)-N-3-isoxazolyl-2-oxo-1,2-dihydro-6-quinolinesulfonamide, 1-(5-fluoro-2-methoxy-4-((3S)-tetrahydro-3-furanylmethyl)phenyl)-N-3-isoxazolyl-2-oxo-1,2-dihydro-6-quinolinesulfonamide], for the setting “in-vitro Nav 1.7 PX data”, the midpoint of inhibition, the IC50, lay at 1600 nM.

Regarding `COc1cc(-c2cnn(C)c2)c(F)cc1-n1c(=O)ccc2cc(S(=O)(=O)Nc3ccon3)ccc21` [Example 405, 1-(5-fluoro-2-methoxy-4-(1-methyl-1H-pyrazol-4-yl)phenyl)-N-3-isoxazolyl-2-oxo-1,2-dihydro-6-quinolinesulfonamide], the IC50 (in-vitro PatchXpress (PX)) came to 14600 nM.

`COc1ccc(-c2ccc(F)cc2F)cc1-n1c(=O)ccc2cc(S(=O)(=O)Nc3ccon3)ccc21` [Example 837, 1-(2′,4′-difluoro-4-methoxy-3-biphenylyl)-N-3-isoxazolyl-2-oxo-1,2-dihydro-6-quinolinesulfonamide] displayed an IC50 (in-vitro Nav 1.7 PX data) of 178 nM.

“1-(3′-(difluoromethoxy)-2-fluoro-5-methoxy-4-biphenylyl)-N-(5-fluoro-2-pyrimidinyl)-2-oxo-1,2-dihydro-6-quinolinesulfonamide [Example 907]” gave an IC50 (in-vitro Nav 1.7 PX data) of 191 nM.

For the setting “in-vitro Nav 1.7 PX data”, `COc1ccc(-c2ccccc2F)cc1-n1c(=O)ccc2cc(S(=O)(=O)Nc3ccon3)ccc21` [Example 836, 1-(2′-fluoro-4-methoxy-3-biphenylyl)-N-3-isoxazolyl-2-oxo-1,2-dihydro-6-quinolinesulfonamide] showed an IC50 of 120 nM.

Compound `COc1cc(C#CC2(F)CCCC2)c(F)cc1-n1c(=O)ccc2cc(S(=O)(=O)Nc3cccnn3)ccc21` (atropisomer, axis not shown; (P)) [Example 1238, (P)-1-(5-fluoro-4-((1-fluorocyclopentyl)ethynyl)-2-methoxyphenyl)-2-oxo-N-3-pyridazinyl-1,2-dihydro-6-quinolinesulfonamide] displayed an IC50 of 94 nM.

With `COc1cc(-c2cccc(Cl)c2F)c(F)cc1-n1c(=O)ccc2cc(S(=O)(=O)Nc3ccon3)ccc21` [Example 703, 1-(3′-chloro-2,2′-difluoro-5-methoxy-4-biphenylyl)-N-3-isoxazolyl-2-oxo-1,2-dihydro-6-quinolinesulfonamide], the midpoint of inhibition (in-vitro Nav 1.7 PX data), the IC50, lay at 5 nM.

For the compound `COc1cc(-c2ccc(C)c(F)c2)c(F)cc1-n1c(=O)ccc2cc(S(=O)(=O)Nc3cc(C)ncn3)ccc21` [Example 1129, 1-(2,3′-difluoro-5-methoxy-4′-methyl-4-biphenylyl)-N-(6-methyl-4-pyrimidinyl)-2-oxo-1,2-dihydro-6-quinolinesulfonamide], for the setting “in-vitro Nav 1.7 PX data”, the IC50 is 80 nM.

Compound `COc1cc(-c2cc(F)cc(Cl)c2)c(C#N)cc1-n1c(=O)ccc2cc(S(=O)(=O)Nc3ccon3)ccc21` (atropisomer, axis not shown; (P)) [Example 433, (P)-1-(3′-chloro-2-cyano-5′-fluoro-5-methoxy-4-biphenylyl)-N-3-isoxazolyl-2-oxo-1,2-dihydro-6-quinolinesulfonamide] registered an IC50 of 10 nM.

`COc1cc(-c2ccc(-n3c(=O)ccc4cc(S(=O)(=O)Nc5ccon5)ccc43)c(OC)c2)ccc1Cl` [Example 1027, 1-(4′-chloro-3,3′-dimethoxy-4-biphenylyl)-N-3-isoxazolyl-2-oxo-1,2-dihydro-6-quinolinesulfonamide]: the IC50 (in-vitro Nav 1.7 PX data) was 32 nM.

Compound `COc1cc(-c2ccnc(C(F)(F)F)c2)c(F)cc1-n1c(=O)ccc2cc(S(=O)(=O)Nc3ccon3)ccc21` [Example 762, 1-(5-fluoro-2-methoxy-4-(2-(trifluoromethyl)-4-pyridinyl)phenyl)-N-3-isoxazolyl-2-oxo-1,2-dihydro-6-quinolinesulfonamide] had an IC50 (in-vitro Nav 1.7 PX data) of 41 nM.

`COc1nc(-c2cccc(C#N)c2)c(Cl)cc1-n1c(=O)ccc2cc(S(=O)(=O)Nc3ccon3)ccc21` [Example 1091, 1-(5-chloro-6-(3-cyanophenyl)-2-methoxy-3-pyridinyl)-N-3-isoxazolyl-2-oxo-1,2-dihydro-6-quinolinesulfonamide]: the IC50 (in-vitro Nav 1.7 PX data) was 20300 nM.
